Numbers after ± are expanded uncertainties.
Assay: mn = molality of the nth substance listed, in mol/kg
Conditions: 100 kPa, Liquid; for speed of sound: Frequency=3 MHz, Single path-length method; for mass density: Vibrating tube method

OCC(O)CO [glycerol] + O
Conditions	mass density, 293.15 K [kg/m3]	mass density, 298.15 K [kg/m3]	mass density, 303.15 K [kg/m3]	mass density, 308.15 K [kg/m3]	speed of sound, 293.15 K [m/s]	speed of sound, 298.15 K [m/s]	speed of sound, 303.15 K [m/s]	speed of sound, 308.15 K [m/s]
m1 = 0.01	998.452 ± 0.3	997.308 ± 0.3	995.869 ± 0.3	994.253 ± 0.3	1483.2 ± 1	1497 ± 1	1509.3 ± 1	1519.9 ± 1
m1 = 0.03	998.865 ± 0.3	997.707 ± 0.3	996.304 ± 0.3	994.684 ± 0.3	1484 ± 1	1497.8 ± 1	1510 ± 1	1520.6 ± 1
m1 = 0.05	999.29 ± 0.3	998.124 ± 0.3	996.72 ± 0.3	995.094 ± 0.3	1484.8 ± 1	1498.6 ± 1	1510.7 ± 1	1521.2 ± 1
m1 = 0.07	999.691 ± 0.3	998.513 ± 0.3	997.109 ± 0.3	995.469 ± 0.3	1485.5 ± 1	1499.3 ± 1	1511.4 ± 1	1521.8 ± 1

O [water] + OCC(O)CO
m2 = 0
Conditions	speed of sound [m/s]
298.15 K	1495.8 ± 1
308.15 K	1519.1 ± 1

From the NIST ThermoML archive (doi:10.1016/j.jct.2018.07.015)
